Reference: patent publication US9233961B2, “Compounds and compositions for the treatment of parasitic diseases” (Novartis AG, priority 2013, dated 2016)
pEC50: −log10 of the molar value.

How the values were obtained:
[1] = tested on: L. donovani HU3 strain in mouse peritoneal macrophages; test: Assay for proliferation of Leishmania parasites in mouse peritoneal macrophages; type: cell-based, Leishmania donovani; details: Leishmania donovani, Peritoneal macrophage, read-out: L. donavani Macrophage EC50
Procedure, shortened: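 BALB/c peritoneal macrophages infected 24 h with L. donovani HU3 amastigotes taken from spleens of mice infected 9–11 weeks, then treated with compound for 5 days at 37° C, 5% CO2. Parasite nuclei counted by SYBR Green imaging after fixation; EC50 from percentage inhibition.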

[2] = tested on: Trypanosoma brucei Lister 427 strain bloodstream form; test: Assay for proliferation of kinetoplastid parasite Trypanosoma brucei; type: cell-based; details: Lister 427 bloodstream form, 48 hours, read-out: T. brucei EC50
Excerpt: Assay for Proliferation of Kinetoplastid Parasite Trypanosoma brucei.
The proliferation is quantified by the addition of Cell Titer Glo (Promega®) a luminescent cell viability assay that measures the number of viable cells in culture based on the quantification of cellular ATP amount, which is an indicator of metabolically active cells.
The following assay illustrates the invention without in any way limiting the scope of the invention. This parasite proliferation assay measures the increase in parasite growth using an assay that measures ATP activity, Cell Titer Glo®.
Trypanosoma brucei Lister 427 strain is grown in HMI-9 Trypanosome media for T. brucei bloodstream form. 30 μl of HMI-9 media is dispensed into 384 well assay plates. 200 nl of compounds of the invention (in DMSO), including anti-trypanosome controls (Pentamidine and suramin), are then transferred into the assay plates, as well as DMSO alone to serve as a negative control for inhibition. Then 25 μl of a suspension of T. brucei culture in HMI-9 media is dispensed into the assay plates. The final concentration of parasites in culture corresponds to 1.7% of 0.5 uM ATP activity with Cell Titer Glo® in HMI-9 media. The plates are placed in a 37° C. incubator for 48 hours in an atmospheric environment containing 5% CO2. 40 μl of Cell Titer Glo® is dispensed into the plates. The plates are then read for luminescence. The percentage inhibition of 50%, EC50, is calculated for each compound.

[3] = tested on: Leishmania donovani axenic amastigote parasites; test: Leishmania donovani axenic amastigote proliferation assay; type: cell-based; details: axenic amastigotes in vitro, read-out: L. donovani amastigotes EC50
Procedure, shortened: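 L. donovani axenic amastigotes (9600/well) in RPMI 1640 with 20% heat-inactivated FBS, folic acid, adenosine, glucose and 25 mM MES, pH 5.5, were incubated with compounds for 2 days at 37 °C, 5% CO2. Viability read by CellTiter-Glo luminescence; EC50 calculated.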

## Cc1cnc2nc(-c3cc(NC(=O)Cn4cccnc4=O)ccc3Cl)[nH]c2c1 [Compound 168]
[1]
  pEC50: < 4.30
[2]
  pEC50: < 4.78
[3]
  pEC50: < 4.60

## Cc1cnc2nc(-c3cc(NC(=O)Cc4nnn[nH]4)ccc3Cl)[nH]c2c1 [Compound 169]
[1]
  pEC50: < 4.30
[2]
  pEC50: < 4.60
[3]
  pEC50: < 4.60

## Cc1cnc2nc(-c3cc(NC(=O)Cn4cnnn4)ccc3Cl)[nH]c2c1 [Compound 170]
[1]
  pEC50: < 4.30
[2]
  pEC50: < 4.60
[3]
  pEC50: < 4.60

## Cc1ccnc(C(=O)Nc2ccc(Cl)c(-c3nc4ncc(C)cc4[nH]3)c2)c1 [Compound 172]
[1]
  pEC50: 4.63
[2]
  pEC50: < 4.80
[3]
  pEC50: < 4.60

## COc1ccnc(C(=O)Nc2ccc(Cl)c(-c3nc4ncc(C)cc4[nH]3)c2)c1 [Compound 173]
[1]
  pEC50: 4.74
[2]
  pEC50: < 4.86
[3]
  pEC50: < 4.60

## Cc1cnc2nc(-c3cc(NC(=O)c4cnco4)ccc3Cl)[nH]c2c1 [Compound 177]
[1]
  pEC50: < 4.30
[2]
  pEC50: 5.78
[3]
  pEC50: 5.64

## Cc1cnc2nc(-c3cc(NC(=O)c4cnc(C)cn4)ccc3Cl)[nH]c2c1 [Compound 178]
[1]
  pEC50: < 4.30
[2]
  pEC50: 4.82
[3]
  pEC50: 4.62

## Cc1cnc2nc(-c3cc(NC(=O)c4nc(C)oc4C)ccc3Cl)[nH]c2c1 [Compound 179]
[1]
  pEC50: < 4.30
[2]
  pEC50: 5.30
[3]
  pEC50: < 4.60

## Cc1cnc2nc(-c3cc(NC(=O)c4cccc5c4OCC5)ccc3Cl)[nH]c2c1 [Compound 180]
[1]
  pEC50: 4.88
[2]
  pEC50: 5.08
[3]
  pEC50: < 4.60

## CO[C@@H](C(=O)Nc1ccc(Cl)c(-c2nc3ncc(C)cc3[nH]2)c1)c1ccccc1 [Compound 181]
[1]
  pEC50: < 4.52
[2]
  pEC50: < 4.84
[3]
  pEC50: < 4.60

## Cc1cnc2nc(-c3cc(NC(=O)c4cccc(N(C)C)c4)ccc3Cl)[nH]c2c1 [Compound 184]
[1]
  pEC50: < 4.30
[2]
  pEC50: 5.08
[3]
  pEC50: < 4.60

## Cc1cnc2nc(-c3cc(NC(=O)c4ccc(C(C)(C)C)o4)ccc3Cl)[nH]c2c1 [Compound 190]
[1]
  pEC50: 4.69
[2]
  pEC50: 5.24
[3]
  pEC50: < 4.62

## Cc1cnc2nc(-c3cc(NC(=O)c4sc(C)nc4C)ccc3Cl)[nH]c2c1 [Compound 191]
[1]
  pEC50: < 4.41
[2]
  pEC50: < 4.79
[3]
  pEC50: < 4.60

## Cc1cnc2nc(-c3cc(NC(=O)c4nccs4)ccc3Cl)[nH]c2c1 [Compound 192]
[1]
  pEC50: < 4.42
[2]
  pEC50: 6.31
[3]
  pEC50: 4.99

## Cc1cnc2nc(-c3cc(NC(=O)c4ccc(S(C)(=O)=O)cc4)ccc3Cl)[nH]c2c1 [Compound 193]
[1]
  pEC50: < 4.30
[2]
  pEC50: 4.82
[3]
  pEC50: < 4.60

## Cc1cnc2nc(-c3cc(NC(=O)C(C)(C)N)ccc3Cl)[nH]c2c1 [Compound 194]
[1]
  pEC50: < 4.30
[2]
  pEC50: < 4.93
[3]
  pEC50: < 4.60

## Cc1cnc2nc(-c3cc(NC(=O)c4cc(Cl)cc(Cl)c4)ccc3Cl)[nH]c2c1 [Compound 196]
[1]
  pEC50: 4.96
[2]
  pEC50: 4.95
[3]
  pEC50: < 4.60

## Cc1cnc2nc(-c3cc(NC(=O)Cn4ccnc4)ccc3Cl)[nH]c2c1 [Compound 197]
[1]
  pEC50: < 4.30
[2]
  pEC50: < 4.65
[3]
  pEC50: < 4.60

## Cc1cnc2nc(-c3cc(NC(=O)C4CCc5ccccc5O4)ccc3Cl)[nH]c2c1 (stereo not drawn) [Compound 198]
[1]
  pEC50: < 4.54
[2]
  pEC50: 5.08
[3]
  pEC50: < 4.60

## Cc1cnc2nc(-c3cc(NC(=O)C4CCCC4)ccc3Cl)[nH]c2c1 [Compound 199]
[1]
  pEC50: 4.67
[2]
  pEC50: 5.36
[3]
  pEC50: 4.63

## Cc1cnc2nc(-c3cc(NC(=O)C4(C)CNC4)ccc3Cl)[nH]c2c1 [Compound 200]
[1]
  pEC50: < 4.30
[2]
  pEC50: < 5.02
[3]
  pEC50: < 4.60

## Cc1cnc2nc(-c3cc(NC(=O)Cc4ccccc4)ccc3Cl)[nH]c2c1 [Compound 202]
[1]
  pEC50: < 4.30
[2]
  pEC50: 5.73
[3]
  pEC50: < 4.60

## Cc1cnc2nc(-c3cc(NC(=O)c4nc(C)n[nH]4)ccc3Cl)[nH]c2c1 [Compound 203]
[1]
  pEC50: < 4.30
[2]
  pEC50: < 4.60
[3]
  pEC50: < 4.60

## Cc1cnc2nc(-c3cc(NC(=O)c4cscn4)ccc3Cl)[nH]c2c1 [Compound 205]
[1]
  pEC50: < 4.33
[2]
  pEC50: 5.90
[3]
  pEC50: 4.84

## Cc1cnc2nc(-c3cc(NC(=O)c4cnccn4)ccc3Cl)[nH]c2c1 [Compound 206]
[1]
  pEC50: 4.87
[2]
  pEC50: 6.76
[3]
  pEC50: 5.81

## Cc1cnc2nc(-c3cc(NC(=O)c4cncn4C)ccc3Cl)[nH]c2c1 [Compound 207]
[1]
  pEC50: < 4.30
[2]
  pEC50: < 4.60
[3]
  pEC50: < 4.60

## Cc1cnc2nc(-c3cc(NC(=O)c4cccnc4)ccc3Cl)[nH]c2c1 [Compound 208]
[1]
  pEC50: < 4.49
[2]
  pEC50: 5.61
[3]
  pEC50: 5.06

## Cc1csc(C(=O)Nc2ccc(Cl)c(-c3nc4ncc(C)cc4[nH]3)c2)c1 [Compound 209]
[1]
  pEC50: 4.98
[2]
  pEC50: 5.85
[3]
  pEC50: 5.10

## Cc1cnc2nc(-c3cc(NC(=O)c4ccncc4)ccc3Cl)[nH]c2c1 [Compound 212]
[1]
  pEC50: 4.65
[2]
  pEC50: 5.58
[3]
  pEC50: 5.18

## Cc1cnc2nc(-c3cc(NC(=O)c4ccnn4C)ccc3Cl)[nH]c2c1 [Compound 213]
[1]
  pEC50: < 4.32
[2]
  pEC50: < 4.60
[3]
  pEC50: < 4.60

## CCOC(=O)Nc1ccc(Cl)c(-c2nc3ncc(C)cc3[nH]2)c1 [Compound 217]
[1]
  pEC50: 4.98
[2]
  pEC50: 6.10
[3]
  pEC50: 5.23

## Cc1cnc2nc(-c3cc(NC(=O)OCC(C)C)ccc3Cl)[nH]c2c1 [Compound 220]
[1]
  pEC50: 4.76
[2]
  pEC50: 5.78
[3]
  pEC50: 5.13

## Cc1cnc2nc(-c3cc(NC(=O)OCc4ccccc4)ccc3Cl)[nH]c2c1 [Compound 223]
[1]
  pEC50: 4.67
[2]
  pEC50: 4.85
[3]
  pEC50: < 4.60

## COC(=O)Nc1ccc(Cl)c(-c2nc3ncc(C)cc3[nH]2)c1 [Compound 224]
[1]
  pEC50: 4.95
[2]
  pEC50: 5.58
[3]
  pEC50: 4.73

## Cc1cnc2nc(-c3cc(NC(=O)OCC(F)(F)F)ccc3Cl)[nH]c2c1 [Compound 225]
[1]
  pEC50: < 4.30
[2]
  pEC50: < 4.60
[3]
  pEC50: < 4.60

## Cc1cnc2nc(-c3cc(NC(=O)N4CCCCC4)ccc3Cl)[nH]c2c1 [Compound 239]
[1]
  pEC50: < 4.45
[2]
  pEC50: 5.69
[3]
  pEC50: 4.86

## Cc1cnc2nc(-c3cc(NC(=O)N4CCCC4)ccc3Cl)[nH]c2c1 [Compound 245]
[1]
  pEC50: 4.73
[2]
  pEC50: 6.62
[3]
  pEC50: 5.75

## Cc1cnc2nc(-c3cc(NC(=O)N4CCNC4=O)ccc3Cl)[nH]c2c1 [Compound 246]
[1]
  pEC50: < 4.30
[2]
  pEC50: < 4.60
[3]
  pEC50: < 4.60

## Cc1cnc2nc(-c3cc(NC(=O)NC(C)C)ccc3Cl)[nH]c2c1 [Compound 249]
[1]
  pEC50: < 4.52
[2]
  pEC50: 4.85
[3]
  pEC50: < 4.60

## Cc1cnc2nc(-c3cc(NS(=O)(=O)c4cccs4)ccc3Cl)[nH]c2c1 [Compound 251]
[1]
  pEC50: < 4.30
[2]
  pEC50: < 4.74
[3]
  pEC50: < 4.60

## Cc1cnc2nc(-c3cc(NS(=O)(=O)Cc4ccc(C(F)(F)F)cc4)ccc3Cl)[nH]c2c1 [Compound 252]
[1]
  pEC50: < 4.30
[2]
  pEC50: < 4.60
[3]
  pEC50: < 4.60

## Cc1cnc2nc(-c3cc(NS(=O)(=O)c4c(C)noc4C)ccc3Cl)[nH]c2c1 [Compound 253]
[1]
  pEC50: < 4.55
[2]
  pEC50: < 4.60
[3]
  pEC50: < 4.60

## Cc1cnc2nc(-c3cc(NS(=O)(=O)N4CCCCC4)ccc3Cl)[nH]c2c1 [Compound 254]
[1]
  pEC50: < 4.30
[2]
  pEC50: < 4.60
[3]
  pEC50: < 4.60

## Cc1cnc2nc(-c3cc(NS(=O)(=O)CC(C)C)ccc3Cl)[nH]c2c1 [Compound 255]
[1]
  pEC50: < 4.30
[2]
  pEC50: < 4.60
[3]
  pEC50: < 4.60

## Cc1cnc2nc(-c3cc(N4CCOCC4)ccc3Cl)[nH]c2c1 [Compound 257]
[1]
  pEC50: < 4.30
[2]
  pEC50: < 4.60
[3]
  pEC50: < 4.60

## Cc1cnc2nc(-c3cc(Nc4ccc(-n5cncn5)nc4)ccc3Cl)[nH]c2c1 [Compound 258]
[1]
  pEC50: < 4.30
[2]
  pEC50: < 4.81
[3]
  pEC50: < 4.60

## Cc1cnc2nc(-c3cc(Nc4ccc(N(C)C)cn4)ccc3Cl)[nH]c2c1 [Compound 259]
[1]
  pEC50: < 4.30
[2]
  pEC50: < 4.60
[3]
  pEC50: < 4.60

## Cc1cnc2nc(-c3cc(Nc4ccc(N5CCOCC5)cn4)ccc3Cl)[nH]c2c1 [Compound 260]
[1]
  pEC50: 4.53
[2]
  pEC50: 4.75
[3]
  pEC50: < 4.60

## Cc1cnc2nc(-c3cc(Nc4cccc5c4CCN(S(C)(=O)=O)C5)ccc3Cl)[nH]c2c1 [Compound 261]
[1]
  pEC50: < 4.30
[2]
  pEC50: 4.80
[3]
  pEC50: < 4.60

## Cc1ccc(Nc2ccc(Cl)c(-c3nc4ncc(C)cc4[nH]3)c2)nc1 [Compound 262]
[1]
  pEC50: 4.87
[2]
  pEC50: < 4.65
[3]
  pEC50: < 4.60

## Cc1cnc2nc(-c3cc(Nc4ccc(C#N)cn4)ccc3Cl)[nH]c2c1 [Compound 263]
[1]
  pEC50: < 4.52
[2]
  pEC50: < 4.60
[3]
  pEC50: < 4.60
